{
  "source": "ChEMBL document CHEMBL3351570",
  "about": "“Design and synthesis of 2-phenylnaphthalenoids as inhibitors of DNA topoisomeraseIIα and antitumor agents” (Eur J Med Chem, 2014)",
  "key": {"MDA-MB-231 [1]": {"system": "MDA-MB-231", "experiment": "Increase in histone H3 Ser10 phosphorylation in human MDA-MB-231 cells at 1 to 5 uM after 24 hrs by Western blot method", "assay_type": "functional, cell-based"}, "MDA-MB-231 [2]": {"system": "MDA-MB-231", "experiment": "Induction of cell cycle arrest in human MDA-MB-231 cells assessed as reduction in accumulation at S phase at 5 uM after 24 hrs by propidium iodide staining based flow cytometry", "assay_type": "functional"}, "MDA-MB-231 [3]": {"system": "MDA-MB-231", "experiment": "Induction of DNA damage in human MDA-MB-231 cells assessed as increase in gammaH2AX protein expression at 1 to 5 uM after 24 hrs by Western blot method", "assay_type": "functional, cell-based"}, "A549": {"system": "A549", "experiment": "Cytotoxicity against human A549 cells after 72 hrs by sulforhodamine B assay", "assay_type": "functional, cell-based", "details": "A549, 72 h"}, "MDA-MB-231 [4]": {"system": "MDA-MB-231", "experiment": "Induction of cell cycle arrest in human MDA-MB-231 cells assessed as reduction in accumulation at G0/G1 phase at 5 uM after 24 hrs by propidium iodide staining based flow cytometry", "assay_type": "functional"}, "[5]": {"target": "DNA topoisomerase 2-alpha (Homo sapiens) (UniProt P11388)", "sequence (P11388 whole entry)": "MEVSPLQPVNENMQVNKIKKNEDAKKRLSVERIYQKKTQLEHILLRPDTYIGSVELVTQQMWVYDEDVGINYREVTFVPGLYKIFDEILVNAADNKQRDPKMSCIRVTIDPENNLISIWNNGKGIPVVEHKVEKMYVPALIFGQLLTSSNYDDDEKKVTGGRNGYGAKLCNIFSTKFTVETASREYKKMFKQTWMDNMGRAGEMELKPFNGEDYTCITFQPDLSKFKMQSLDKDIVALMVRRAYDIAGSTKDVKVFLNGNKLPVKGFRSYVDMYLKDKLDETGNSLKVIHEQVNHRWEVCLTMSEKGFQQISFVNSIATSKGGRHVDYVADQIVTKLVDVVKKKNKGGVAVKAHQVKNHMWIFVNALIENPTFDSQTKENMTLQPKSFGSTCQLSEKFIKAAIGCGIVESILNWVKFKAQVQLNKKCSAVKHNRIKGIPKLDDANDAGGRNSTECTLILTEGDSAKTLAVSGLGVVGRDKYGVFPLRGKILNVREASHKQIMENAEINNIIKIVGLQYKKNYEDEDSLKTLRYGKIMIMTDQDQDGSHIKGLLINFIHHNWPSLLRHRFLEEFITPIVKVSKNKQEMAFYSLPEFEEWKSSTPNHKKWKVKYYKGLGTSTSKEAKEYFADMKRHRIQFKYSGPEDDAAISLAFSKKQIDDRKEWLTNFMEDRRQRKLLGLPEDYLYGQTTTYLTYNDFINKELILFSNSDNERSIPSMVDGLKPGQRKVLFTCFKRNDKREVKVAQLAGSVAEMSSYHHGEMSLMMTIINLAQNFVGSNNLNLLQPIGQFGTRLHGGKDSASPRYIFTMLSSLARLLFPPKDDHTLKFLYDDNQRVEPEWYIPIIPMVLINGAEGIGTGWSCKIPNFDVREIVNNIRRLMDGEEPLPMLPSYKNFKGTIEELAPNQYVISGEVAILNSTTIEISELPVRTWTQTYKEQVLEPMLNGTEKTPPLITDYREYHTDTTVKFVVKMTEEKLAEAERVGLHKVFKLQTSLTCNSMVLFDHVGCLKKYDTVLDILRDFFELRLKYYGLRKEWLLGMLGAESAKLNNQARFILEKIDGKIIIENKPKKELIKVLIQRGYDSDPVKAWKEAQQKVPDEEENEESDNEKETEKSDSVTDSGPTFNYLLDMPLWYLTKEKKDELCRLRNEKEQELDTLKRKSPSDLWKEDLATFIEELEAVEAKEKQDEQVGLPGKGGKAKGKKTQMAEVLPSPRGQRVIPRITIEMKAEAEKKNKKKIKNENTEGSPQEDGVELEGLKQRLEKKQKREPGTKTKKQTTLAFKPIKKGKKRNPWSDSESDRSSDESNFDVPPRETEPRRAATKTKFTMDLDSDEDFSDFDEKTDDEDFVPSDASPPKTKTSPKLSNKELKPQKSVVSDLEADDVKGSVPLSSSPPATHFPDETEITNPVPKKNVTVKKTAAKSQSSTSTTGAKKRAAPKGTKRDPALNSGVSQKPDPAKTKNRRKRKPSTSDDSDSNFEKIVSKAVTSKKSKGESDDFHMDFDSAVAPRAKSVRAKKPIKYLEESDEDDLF", "experiment": "Inhibition of human recombinant topoisomerase 2alpha assessed as increase in linear DNA using circular supercoiled plasmid DNA substrate at 100 to 200 uM incubated for 30 mins by ethidium bromide staining based DNA gel electrophoresis"}, "MDA-MB-231 [6]": {"system": "MDA-MB-231", "experiment": "Induction of DNA damage in human MDA-MB-231 cells assessed as increase in p53 S46 phosphorylation at 1 to 5 uM after 24 hrs by Western blot method", "assay_type": "functional, cell-based"}, "[7]": {"target": "DNA topoisomerase 2-alpha (Homo sapiens) (UniProt P11388)", "experiment": "Inhibition of human recombinant topoisomerase 2alpha assessed as reduction in pBR322 DNA relaxation at 200 uM incubated for 30 mins by DNA gel electrophoresis"}, "MDA-MB-231 [8]": {"system": "MDA-MB-231", "experiment": "Increase in cyclin B protein expression in human MDA-MB-231 cells at 1 to 5 uM after 24 hrs by Western blot method", "assay_type": "functional, cell-based"}, "MDA-MB-231 [9]": {"system": "MDA-MB-231", "experiment": "Induction of DNA damage in human MDA-MB-231 cells assessed as ATM S1981 phosphorylation at 1 to 5 uM after 24 hrs by Western blot method", "assay_type": "functional, cell-based"}, "Nucleic Acid": {"system": "Nucleic Acid", "experiment": "Induction of DNA intercalation in Escherichia coli pBR322 DNA at 50 to 200 uM by DNA gel electrophoresis", "assay_type": "nucleic-acid assay"}, "MDA-MB-231 [10]": {"system": "MDA-MB-231", "experiment": "Cytotoxicity against human MDA-MB-231 cells after 72 hrs by sulforhodamine B assay", "assay_type": "functional, cell-based", "details": "MDA-MB-231, 72 h"}, "MDA-MB-231 [11]": {"system": "MDA-MB-231", "experiment": "Induction of DNA damage in human MDA-MB-231 cells assessed as ATR expression level at 1 to 5 uM after 24 hrs by Western blot method", "assay_type": "functional, cell-based"}, "MDA-MB-231 [12]": {"system": "MDA-MB-231", "experiment": "Induction of DNA damage in human MDA-MB-231 cells assessed as ATM expression level at 1 to 5 uM after 24 hrs by Western blot method", "assay_type": "functional, cell-based"}, "MDA-MB-231 [13]": {"system": "MDA-MB-231", "experiment": "Induction of cell cycle arrest in human MDA-MB-231 cells assessed as accumulation at G2/M phase at 5 uM after 24 hrs by propidium iodide staining based flow cytometry (reference value: 25.19%)", "assay_type": "functional"}, "MDA-MB-231 [14]": {"system": "MDA-MB-231", "experiment": "Induction of DNA damage in human MDA-MB-231 cells assessed as increase in ATR S428 phosphorylation at 1 to 5 uM after 24 hrs by Western blot method", "assay_type": "functional, cell-based"}, "[15]": {"target": "DNA topoisomerase 2-alpha (Homo sapiens) (UniProt P11388)", "experiment": "Inhibition of human recombinant topoisomerase 2alpha assessed as reduction in pBR322 DNA relaxation incubated for 30 mins by DNA gel electrophoresis"}, "Mus musculus": {"system": "Mus musculus", "experiment": "Toxicity in nude BALB/c mouse xenografted with human MDA-MB-231 cells assessed as reduction in body weight at 20 mg/kg, iv dosed every other day for 15 days (reference value: 24.2 g)", "assay_type": "organism-based", "set-up": "dose 20 mg/kg, route intravenous", "details": "in vivo, 360 h"}, "MDA-MB-231 [16]": {"system": "MDA-MB-231", "experiment": "Induction of DNA damage in human MDA-MB-231 cells assessed as increase in p53 expression level at 1 to 5 uM after 24 hrs by Western blot method", "assay_type": "functional, cell-based"}, "[17]": {"target": "DNA topoisomerase 2-alpha (Homo sapiens) (UniProt P11388)", "experiment": "Inhibition of human recombinant topoisomerase 2alpha assessed as reduction in pBR322 DNA relaxation at 100 uM incubated for 30 mins by DNA gel electrophoresis"}, "HeLa": {"system": "HeLa", "experiment": "Cytotoxicity against human HeLa cells after 72 hrs by sulforhodamine B assay", "assay_type": "functional, cell-based"}, "MDA-MB-231 [18]": {"system": "MDA-MB-231", "experiment": "Effect on cdc2 protein expression in human MDA-MB-231 cells at 1 to 5 uM after 24 hrs by Western blot method", "assay_type": "functional, cell-based"}, "[19]": {"target": "DNA topoisomerase 2-alpha (Homo sapiens) (UniProt P11388)", "experiment": "Inhibition of human recombinant topoisomerase 2alpha assessed as reduction in kDNA decatenation at 100 uM incubated for 30 mins by DNA gel electrophoresis"}, "MDA-MB-231 [20]": {"system": "MDA-MB-231", "experiment": "Antitumor activity against human MDA-MB-231 cells xenografted in BALB/c-nu mouse assessed as reduction in tumor weight at 20 mg/kg, iv dosed every other day for 15 days", "assay_type": "functional", "details": "MDA-MB-231, 360 h"}},
  "note": "The source made the active and inactive calls. No cut-off for these calls is given here.",
  "data": [
    {"smiles": "OCc1cc(-c2ccc3cc(O)ccc3c2)ccc1O", "values": [
      {"measurement": "Activity", "setting": "MDA-MB-231 [1]", "result": "Active"},
      {"measurement": "Activity", "setting": "MDA-MB-231 [2]", "result": "Active"},
      {"measurement": "Activity", "setting": "MDA-MB-231 [3]", "result": "Dose-dependent effect"},
      {"measurement": "IC50", "setting": "A549", "result": 2800, "unit": "nM"},
      {"measurement": "Activity", "setting": "MDA-MB-231 [4]", "result": "Active"},
      {"measurement": "inhibition", "setting": "[5]", "result": "Active"},
      {"measurement": "Activity", "setting": "MDA-MB-231 [6]", "result": "Active"},
      {"measurement": "inhibition", "setting": "[7]", "result": "Active"},
      {"measurement": "Activity", "setting": "MDA-MB-231 [8]", "result": "Active"},
      {"measurement": "Activity", "setting": "MDA-MB-231 [9]", "result": "inactive"},
      {"measurement": "Activity", "setting": "Nucleic Acid", "result": "inactive"},
      {"measurement": "IC50", "setting": "MDA-MB-231 [10]", "result": 1000, "unit": "nM"},
      {"measurement": "Activity", "setting": "MDA-MB-231 [11]", "result": "inactive"},
      {"measurement": "Activity", "setting": "MDA-MB-231 [12]", "result": "inactive"},
      {"measurement": "Activity", "setting": "MDA-MB-231 [13]", "result": 77.79, "unit": "%"},
      {"measurement": "Activity", "setting": "MDA-MB-231 [14]", "result": "Active"},
      {"measurement": "inhibition", "setting": "[15]", "result": "Dose-dependent effect"},
      {"measurement": "Activity", "setting": "Mus musculus", "result": "Non-toxic"},
      {"measurement": "Activity", "setting": "MDA-MB-231 [16]", "result": "Active"},
      {"measurement": "inhibition", "setting": "[17]", "result": "Active"},
      {"measurement": "IC50", "setting": "HeLa", "result": 1300, "unit": "nM"},
      {"measurement": "Activity", "setting": "MDA-MB-231 [18]", "result": "inactive"},
      {"measurement": "inhibition", "setting": "[19]", "result": "Active"},
      {"measurement": "inhibition in vivo at 20 mg/kg", "setting": "MDA-MB-231 [20]", "result": 43.1, "unit": "%"}
    ]}
  ]
}
